Assay results reported in patent publication US6362166B1, “Antipicornaviral compounds and methods for their use and preparation” (Agouron Pharmaceuticals, Inc., priority 1996, dated 2002).

Key:
[1] = target: T1, Recombinant Rhinovirus 3C protease (RVP) serotype-14 (Human rhinovirus 14, UniProt P03303); assay: Inhibition of Rhinovirus Protease (fluorescence resonance energy transfer assay), serotype 14; format: biochemical, human rhinovirus (HRV)
T1 construct: Recombinant Rhinovirus 3C proteases from serotypes 14, 16, 2 or 89; made in house

[2] = target: T2, Recombinant Rhinovirus 3C protease (RVP) serotype 16 (Human rhinovirus 16, UniProt Q82122); assay: Inhibition of Rhinovirus Protease (fluorescence resonance energy transfer assay), serotype 16; format: biochemical, human rhinovirus (HRV); conditions: pH 7.6; RVP serotype 16; progress curves in enzyme start experiments; read-out: kobs/I
T2 construct: Recombinant Rhinovirus 3C proteases from serotypes 14, 16, 2 or 89; made in house
Procedure: (§1) Stock solution (50 mM, in DMSO) of various compounds were prepared; dilutions were in the same solvent. Recombinant Rhinovirus 3C proteases from serotypes 14, 16, 2 or 89 were prepared by the following standard chromatographic procedures: (1) ion exchange using Q Sepharose Fast Flow from Pharmacia; (2) affinity chromatography using Affi-Gel Blue from Biorad; and (3) sizing using Sephadex G-100 from Pharmacia. Assays contained 2% DMSO, 50 mM tris pH 7.6, 1 mM EDTA, a compound at the indicated concentrations, approximately 1 μM substrate, and 50-100 nM protease. […] The kobs/I values were obtained from reactions initiated by addition of enzyme rather than substrate. RVP activity is measured in the fluorescence resonance energy transfer assay. The substrate was (N-terminal) DABCYL-([…]Gyl)-EDANS. In the uncleaved peptide, the EDANS fluorescence was quenched by the proximal DABCYL moeity. When the peptide was cleaved, the quenching was relieved, and activity was measured as an increase in fluorescence signal.
In the above table, all data is RVP serotype-14 unless otherwise noted in parentheses. All strains of human rhinovirus (HRV) were purchased from American Type Culture Collection (ATCC), except for serotype 14, which was produced from the infectious cDNA clone constructed and supplied to us by Dr. Roland Rueckert at the Institute for Molecular Virology, University of Wisconsin, Madison, Wisc. […] The data in the column designated kobs/I was measured from progress curves in enzyme start experiments.

[3] = target: T3, Recombinant Rhinovirus 3C protease (RVP) serotype 2 (Human rhinovirus 2, UniProt P04936); assay: Inhibition of Rhinovirus Protease (fluorescence resonance energy transfer assay), serotype 2; format: biochemical, human rhinovirus (HRV); conditions: pH 7.6, progress curves in enzyme start experiments, read-out: kobs/I
T3 construct: Recombinant Rhinovirus 3C proteases from serotypes 14, 16, 2 or 89; made in house
In short: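 FRET cleavage of DABCYL-peptide-EDANS substrate (~1 μM) by chromatographically purified recombinant 3C protease (50-100 nM) in 50 mM tris pH 7.6, 1 mM EDTA, 2% DMSO. Fluorescence increase followed; kobs/I from progress curves of enzyme-initiated reactions, fitted by nonlinear regression.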

[4] = target: T4, Recombinant Rhinovirus 3C protease (RVP) serotype 89 (Human rhinovirus A serotype 89, UniProt P07210); assay: Inhibition of Rhinovirus Protease (fluorescence resonance energy transfer assay), serotype 89; format: biochemical, human rhinovirus (HRV); conditions: pH 7.6, progress curves in enzyme start experiments, read-out: kobs/I
T4 construct: Recombinant Rhinovirus 3C proteases from serotypes 14, 16, 2 or 89; made in house
Procedure: as §1
In the above table, all data is RVP serotype-14 unless otherwise noted in parentheses. […] The data in the column designated kobs/I was measured from progress curves in enzyme start experiments.

HRV-14 = assay: Antirhinoviral HI-HeLa Cell Culture Assay (Cell Protection Assay, XTT dye reduction); format: cell-based, human rhinovirus (HRV) serotype-14; conditions: Rhinovirus B, HRV14, 48 h; HI-HeLa cells infected with HRV-14, m.o.i. 0.13; two days; XTT; read-out: EC50
In short: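 Protection measured via XTT dye reduction (450/650 nm) two days after compound treatment of HI-HeLa cells, mock-infected or infected with cDNA-derived HRV-14 at m.o.i. 0.13. CC50 divided by EC50 gives the therapeutic index.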

[5] = Cytotoxicity in mock-infected HI-HeLa cells (antirhinoviral assay, XTT); format: cell-based; conditions: human; mock-infected HI-HeLa cells; two days; XTT; read-out: CC50
[6] = test system: Human Rhinovirus-serotype 10 (HRV-10); assay: Normal Human Bronchial Epithelial Cell Assay (MTT); format: cell-based; conditions: Epithelial cell, normal human bronchial cells, HRV-10 at m.o.i. 10, 3-4 days at 34° C., read-out: ED50 (the source's name)
Procedure: Normal human bronchial cells were obtained from cadavers and cultured. The cells were plated at 2×10^4 per well in a […] plate. They were allowed to adhere and grow for 24 hours in 200 μL of serum-free bronchial/tracheal epithelial cell growth medium at 37° C. with 5% CO2. Human Rhinovirus-serotype 10 (HRV-10) was purchased from American Type Culture Collection (ATCC). To start the assay, the supernatant was removed, and HRV-10 at an m.o.i. of 10 (virus particles/cell) was added to each well along with the appropriate amount of compound of formula I or II. The plate was then incubated at 34° C. After 3 hours the supernatant was removed, and 200 μL of media was added along with the same concentration of compound as used in the beginning of the assay. The plates were incubated for 3-4 days at 34° C. To determine the amount of cell growth, an MTT assay (0.5 mgs/mL), as described in Mosmann, T. J. J. Immunol. Methods 1983, 65, 55-63, which is incorporated herein by reference, was performed on the cells, and the plate was read at an optical density of 540 nm. The compounds were tested against control compound Pirodavir, obtained from Janssen Pharmaceuticals. The EC50 was measured as described above for the HI-HeLa Cell Culture Assay.

CVB-3 = assay: Anticoxsackieviral HI-HeLa Cell Culture Assay (XTT dye reduction); format: cell-based, Coxsackie strain B-3 (CVB-3); conditions: 24 h, HI-HeLa cells infected with CVB-3, m.o.i. 0.08, one day
Procedure: (§2) Specifically, HI-HeLa cells were infected wtih […] at a multiplicity of infection (m.o.i.) of 0.08 or mock-infected with medium only. Infected or mock-infected cells were resuspended at 8×10^5 cells per mL and incubated with appropriate concentrations of compound. One day later, XTT/PMS were added to test plates and the amount of formazan produced was quantified spectrophotometrically at 450/650 nm. […] The therapeutic index (TI) was calculated by dividing the CC50 by the EC50.
(§3) The Coxsackie strain B-3 (CVB-3) was purchased from American Type Culture Collection (ATCC). Virus stocks were propgated and antiviral assays were performed in Hi-HeLa cells (ATCC). Cells were grown in Minimal Essential Medium with 10% fetal bovine serum.

[7] = Cytotoxicity in mock-infected HI-HeLa cells (anticoxsackieviral assay, XTT); format: cell-based; conditions: human; mock-infected HI-HeLa cells; one day; XTT
Procedure: as §2, with “The ability of compounds to protect calls against CVB-3 infection was measured by the XTT dye reduction method, which is described in Weislow, O. S., R. Kiser, D. L. Fine, J. Bader, R. H. Shoemaker, and M. R. Boyd, 1989, J. Natl. Cancer Inst. 81:577-586, which is incorporated herein by reference. Specifically,” for “Specifically,”
as §3

T1 sequence (P03303 1538-1719): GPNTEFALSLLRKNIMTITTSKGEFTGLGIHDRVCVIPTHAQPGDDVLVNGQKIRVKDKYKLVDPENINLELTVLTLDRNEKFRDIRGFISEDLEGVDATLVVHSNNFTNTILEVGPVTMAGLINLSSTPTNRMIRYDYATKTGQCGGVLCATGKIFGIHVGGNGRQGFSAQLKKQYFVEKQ
T4 sequence (P07210 1522-1704): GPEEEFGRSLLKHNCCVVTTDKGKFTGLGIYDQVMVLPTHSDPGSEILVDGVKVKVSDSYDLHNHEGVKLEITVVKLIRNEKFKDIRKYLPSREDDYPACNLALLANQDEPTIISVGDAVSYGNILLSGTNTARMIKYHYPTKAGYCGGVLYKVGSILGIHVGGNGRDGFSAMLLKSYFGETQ
T3 sequence (P04936 1508-1690): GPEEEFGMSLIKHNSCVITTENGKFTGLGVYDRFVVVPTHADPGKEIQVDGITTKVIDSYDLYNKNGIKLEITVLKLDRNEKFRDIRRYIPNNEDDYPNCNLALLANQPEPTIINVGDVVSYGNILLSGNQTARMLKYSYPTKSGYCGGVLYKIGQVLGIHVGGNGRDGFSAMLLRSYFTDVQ
T2 sequence (Q82122 1511-1693): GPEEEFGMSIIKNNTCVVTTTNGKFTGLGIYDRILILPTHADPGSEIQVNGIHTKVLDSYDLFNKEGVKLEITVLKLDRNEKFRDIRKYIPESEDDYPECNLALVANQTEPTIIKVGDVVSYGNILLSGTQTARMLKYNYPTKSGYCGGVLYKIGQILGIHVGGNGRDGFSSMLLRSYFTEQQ

## CC(=O)/C=C/[C@H](CCC(N)=O)NC(=O)[C@H](Cc1ccccc1)NC(=O)[C@H](CC(C)C)NC(=O)OCc1ccccc1 [Compound 13, 4-(CBZ-L-Leu-L-Phe-L-Gln)-E-3-Butene-2-one]
[1]
  Ki: 6.5 µM
[1]; pH 7.6, read-out: kobs/I
  kinact/KI: 54000 M⁻¹ s⁻¹
[2]
  kinact/KI: 9000 M⁻¹ s⁻¹
[3]
  kinact/KI: 2400 M⁻¹ s⁻¹
[4]
  kinact/KI: 5500 M⁻¹ s⁻¹
HRV-14
  EC50: 2 µM
[5]
  CC50 at 2 days: 58.9 µM
[6]
  EC50: 0.0004 µM
CVB-3
  EC50: > 100 µM
[7]
  CC50 at 1 day: > 100 µM
